Reference: ChEMBL document CHEMBL4316596, “Antimicrobial Peptides with High Proteolytic Resistance for Combating Gram-Negative Bacteria” (J Med Chem, 2019)
Activity calls are given as the source filed them. The calls are words filed in the database; no cut-off is given here.

Assays:
Escherichia coli [1] = test: Antimicrobial activity against Escherichia coli UB1005 after 24 hrs by NCCLS-protocol based assay; format: functional; settings: UB1005, 24 h
Escherichia coli [2] = test: Antimicrobial activity against Escherichia coli K88 after 24 hrs by NCCLS-protocol based assay; format: functional; settings: K88, 24 h
Escherichia coli [3] = test: Antimicrobial activity against Escherichia coli K99 after 24 hrs by NCCLS-protocol based assay; format: functional; settings: K99, 24 h
Pseudomonas aeruginosa [4] = test: Antimicrobial activity against Pseudomonas aeruginosa ATCC 27853 after 24 hrs by NCCLS-protocol based assay; format: functional; settings: ATCC 27853, 24 h
Pseudomonas aeruginosa [5] = test: Antimicrobial activity against Pseudomonas aeruginosa PAO1 after 24 hrs by NCCLS-protocol based assay; format: functional; settings: PAO1, 24 h
Pseudomonas aeruginosa [6] = test: Antimicrobial activity against Pseudomonas aeruginosa 26305 clinical isolates after 24 hrs by NCCLS-protocol based assay; format: functional; settings: Pseudomonas aeruginosa, 26305, 24 h
Pseudomonas aeruginosa [7] = test: Antimicrobial activity against Pseudomonas aeruginosa CICC 21625 clinical isolates after 24 hrs by NCCLS-protocol based assay; format: functional; settings: CICC 21625, 24 h
Pseudomonas aeruginosa [8] = test: Antimicrobial activity against Pseudomonas aeruginosa 25349 clinical isolates after 24 hrs by NCCLS-protocol based assay; format: functional; settings: Pseudomonas aeruginosa, 25349, 24 h
Salmonella typhimurium [9] = test: Antimicrobial activity against Salmonella typhimurium ATCC 14028 after 24 hrs by NCCLS-protocol based assay; format: functional, Salmonella enterica subsp. enterica serovar Typhimurium; settings: Salmonella enterica, ATCC 14028, 24 h
Acinetobacter baumannii = test: Antimicrobial activity against Acinetobacter baumannii after 24 hrs by NCCLS-protocol based assay; format: functional
Klebsiella pneumoniae [10] = test: Antimicrobial activity against Klebsiella pneumoniae after 24 hrs by NCCLS-protocol based assay; format: functional
Pseudomonas aeruginosa [11] = test: Antimicrobial activity against Pseudomonas aeruginosa ATCC 27853 at sub-MBC after 60 passages; format: functional, organism-based
Erythrocyte = test: Hemolytic activity against human RBC after 1 hr; format: ADME, cell-based
RAW264.7 = test: Cytotoxicity against mouse RAW264.7 cells assessed as cell death after 18 to 24 hrs by MTT assay; format: cell-based
[12] = Selectivity ratio of HC10 for human RBC to geometric mean of the peptide MBC for bacteria
Escherichia coli [13] = test: Bactericidal activity against Escherichia coli ATCC 25922 incubated for 4 hrs followed by culture spread on agar plates and cultured overnight in presence of CaCl2; format: functional; settings: ATCC 25922, 4 h, read-out: MBC>99.9
Escherichia coli [14] = test: Bactericidal activity against Escherichia coli ATCC 25922 incubated for 4 hrs followed by culture spread on agar plates and cultured overnight in presence of ZnCl2; format: functional; settings: ATCC 25922, 4 h, read-out: MBC>99.9
Escherichia coli [15] = test: Bactericidal activity against Escherichia coli ATCC 25922 incubated for 4 hrs followed by culture spread on agar plates and cultured overnight in presence of FeCl3; format: functional; settings: ATCC 25922, 4 h, read-out: MBC>99.9
Escherichia coli [16] = test: Bactericidal activity against Escherichia coli ATCC 25922 incubated for 4 hrs followed by culture spread on agar plates and cultured overnight in presence of NH4Cl; format: functional; settings: ATCC 25922, 4 h, read-out: MBC>99.9
Escherichia coli [17] = test: Bactericidal activity against Escherichia coli ATCC 25922 incubated for 4 hrs followed by culture spread on agar plates and cultured overnight in presence of MgCl2; format: functional; settings: ATCC 25922, 4 h, read-out: MBC>99.9
Escherichia coli [18] = test: Bactericidal activity against Escherichia coli ATCC 25922 incubated for 4 hrs followed by culture spread on agar plates and cultured overnight in presence of 25% serum albumin; format: functional; settings: ATCC 25922, 4 h, read-out: MBC>99.9
Escherichia coli [19] = test: Bactericidal activity against Escherichia coli ATCC 25922 incubated for 4 hrs followed by culture spread on agar plates and cultured overnight in presence of 12.5% serum albumin; format: functional; settings: ATCC 25922, 4 h, read-out: MBC>99.9
Escherichia coli [20] = test: Bactericidal activity against Escherichia coli ATCC 25922 incubated for 4 hrs followed by culture spread on agar plates and cultured overnight in presence of 4 mg/ml trypsin; format: functional; settings: ATCC 25922, 4 h, read-out: MBC>99.9
Escherichia coli [21] = test: Bactericidal activity against Escherichia coli ATCC 25922 incubated for 4 hrs followed by culture spread on agar plates and cultured overnight in presence of 2 mg/ml trypsin; format: functional; settings: ATCC 25922, 4 h, read-out: MBC>99.9
Escherichia coli [22] = test: Bactericidal activity against Escherichia coli ATCC 25922 incubated for 4 hrs followed by culture spread on agar plates and cultured overnight in presence of 0.5 mg/ml trypsin; format: functional; settings: ATCC 25922, 4 h, read-out: MBC>99.9
Escherichia coli [23] = test: Bactericidal activity against Escherichia coli ATCC 25922 incubated for 4 hrs followed by culture spread on agar plates and cultured overnight in presence of 0.25 mg/ml trypsin; format: functional; settings: ATCC 25922, 4 h, read-out: MBC>99.9
Escherichia coli [24] = test: Bactericidal activity against Escherichia coli ATCC 25922 incubated for 4 hrs followed by culture spread on agar plates and cultured overnight in presence of 0.125 mg/ml trypsin; format: functional; settings: ATCC 25922, 4 h, read-out: MBC>99.9
Escherichia coli [25] = test: Bactericidal activity against Escherichia coli ATCC 25922 incubated for 4 hrs followed by culture spread on agar plates and cultured overnight in presence of 1 mg/ml chymotrypsin; format: functional; settings: ATCC 25922, 4 h, read-out: MBC>99.9
Escherichia coli [26] = test: Bactericidal activity against Escherichia coli ATCC 25922 incubated for 4 hrs followed by culture spread on agar plates and cultured overnight in presence of 0.25 mg/ml chymotrypsin; format: functional; settings: ATCC 25922, 4 h, read-out: MBC>99.9
Escherichia coli [27] = test: Bactericidal activity against Escherichia coli ATCC 25922 incubated for 4 hrs followed by culture spread on agar plates and cultured overnight in presence of 0.125 mg/ml chymotrypsin; format: functional; settings: ATCC 25922, 4 h, read-out: MBC>99.9
Escherichia coli [28] = test: Bactericidal activity against Escherichia coli ATCC 25922 incubated for 4 hrs followed by culture spread on agar plates and cultured overnight in presence of 4 mg/ml pepsin; format: functional, organism-based
Escherichia coli [29] = test: Bactericidal activity against Escherichia coli UB1005 incubated for 4 hrs followed by culture spread on agar plates and cultured overnight; format: functional; settings: UB1005, 4 h, read-out: MBC>99.9
Escherichia coli [30] = test: Bactericidal activity against Escherichia coli 078 incubated for 4 hrs followed by culture spread on agar plates and cultured overnight; format: functional; settings: Escherichia coli, 078, 4 h; read-out: MBC>99.9
Escherichia coli [31] = test: Bactericidal activity against Escherichia coli K99 incubated for 4 hrs followed by culture spread on agar plates and cultured overnight; format: functional; settings: K99, 4 h, read-out: MBC>99.9
Pseudomonas aeruginosa [32] = test: Bactericidal activity against Pseudomonas aeruginosa 25349 clinical isolates incubated for 4 hrs followed by culture spread on agar plates and cultured overnight; format: functional; settings: Pseudomonas aeruginosa, 25349, 4 h; read-out: MBC>99.9
Salmonella typhimurium [33] = test: Bactericidal activity against Salmonella typhimurium ATCC 14028 incubated for 4 hrs followed by culture spread on agar plates and cultured overnight; format: functional, Salmonella enterica subsp. enterica serovar Typhimurium; settings: Salmonella enterica, ATCC 14028, 4 h; read-out: MBC>99.9
Salmonella typhimurium [34] = test: Bactericidal activity against Salmonella typhimurium C7731 incubated for 4 hrs followed by culture spread on agar plates and cultured overnight; format: functional, Salmonella enterica subsp. enterica serovar Typhimurium; settings: Salmonella enterica, C7731, 4 h; read-out: MBC>99.9
[35] = Bactericidal activity against Salmonella pullorum C7913 incubated for 4 hrs followed by culture spread on agar plates and cultured overnight; format: functional, Salmonella enterica subsp. enterica serovar Pullorum; settings: Salmonella enterica, C7913, 4 h; read-out: MBC>99.9
Klebsiella pneumoniae [36] = test: Bactericidal activity against Klebsiella pneumoniae incubated for 4 hrs followed by culture spread on agar plates and cultured overnight; format: functional; settings: read-out: MBC>99.9
Trypsin = Trypsin (Homo sapiens, UniProt P07477+P07478+P35030); test: Stability of the compound assessed as trypsin (unknown origin)-mediated compound hydrolysis after 8 hrs by SDS-PAGE analysis; format: ADME, protein assay
[37] = Stability of the compound assessed as pepsin (unknown origin)-mediated compound hydrolysis after 8 hrs by SDS-PAGE analysis; format: ADME; settings: human

## H-LKPLLKPLLKPLLKPLLKPLLKPLLKPL-NH2
Escherichia coli [1]
  MIC95: 1 µM
Escherichia coli [2]
  MIC95: 0.5 µM
Escherichia coli [3]
  MIC95: 1 µM
Pseudomonas aeruginosa [4]
  MIC95: 2 µM
Pseudomonas aeruginosa [5]
  MIC95: 1 µM
Pseudomonas aeruginosa [6]
  MIC95: 4 µM
Pseudomonas aeruginosa [7]
  MIC95: 8 µM
Pseudomonas aeruginosa [8]
  MIC95: 8 µM
Salmonella typhimurium [9]
  MIC95: 1 µM
Acinetobacter baumannii
  MIC95: 1 µM
Klebsiella pneumoniae [10]
  MIC95: 1 µM
Pseudomonas aeruginosa [11]
  Activity: Active
Erythrocyte
  HC10: > 128 µM
RAW264.7
  IC50: 0.00156 mM
[12]
  Ratio: 94.5
Escherichia coli [13]
  MBC: > 128 µM
Escherichia coli [14]
  MBC: 1 µM
Escherichia coli [15]
  MBC: 2 µM
Escherichia coli [16]
  MBC: 1 µM
Escherichia coli [17]
  MBC: 2 µM
Escherichia coli [18]
  MBC: 8 µM
Escherichia coli [19]
  MBC: 2 µM
Escherichia coli [20]
  MBC: 1 µM
Escherichia coli [21]
  MBC: 1 µM
Escherichia coli [22]
  MBC: 1 µM
Escherichia coli [23]
  MBC: 1 µM
Escherichia coli [24]
  MBC: 1 µM
Escherichia coli [25]
  MBC: 1 µM
Escherichia coli [26]
  MBC: 1 µM
Escherichia coli [27]
  MBC: 1 µM
Escherichia coli [28]
  Activity: inactive
Escherichia coli [29]
  MBC: 2 µM
Escherichia coli [30]
  MBC: 2 µM
Escherichia coli [31]
  MBC: 2 µM
Pseudomonas aeruginosa [32]
  MBC: 8 µM
Salmonella typhimurium [33]
  MBC: 2 µM
Salmonella typhimurium [34]
  MBC: 2 µM
[35]
  MBC: 4 µM
Klebsiella pneumoniae [36]
  MBC: 2 µM
Trypsin
  Stability: Stable
[37]
  Stability: Unstable

## H-IKPIIKPIIKPIIKPIIKPIIKPIIKPI-NH2
Escherichia coli [1]
  MIC95: 4 µM
Escherichia coli [2]
  MIC95: 2 µM
Escherichia coli [3]
  MIC95: 2 µM
Pseudomonas aeruginosa [4]
  MIC95: > 64 µM
Pseudomonas aeruginosa [5]
  MIC95: > 64 µM
Pseudomonas aeruginosa [6]
  MIC95: > 64 µM
Pseudomonas aeruginosa [7]
  MIC95: > 64 µM
Pseudomonas aeruginosa [8]
  MIC95: > 64 µM
Salmonella typhimurium [9]
  MIC95: 64 µM
Acinetobacter baumannii
  MIC95: 2 µM
Klebsiella pneumoniae [10]
  MIC95: 16 µM
Erythrocyte
  HC10: > 128 µM
RAW264.7
  IC50: 2.75 mM
[12]
  Ratio: 7.03
Escherichia coli [13]
  MBC: > 128 µM
Escherichia coli [14]
  MBC: 32 µM
Escherichia coli [15]
  MBC: 64 µM
Escherichia coli [16]
  MBC: 16 µM
Escherichia coli [17]
  MBC: 64 µM
Escherichia coli [18]
  MBC: > 128 µM
Escherichia coli [19]
  MBC: > 128 µM
Escherichia coli [20]
  MBC: 16 µM
Escherichia coli [21]
  MBC: 16 µM
Escherichia coli [22]
  MBC: 16 µM
Escherichia coli [23]
  MBC: 16 µM
Escherichia coli [24]
  MBC: 16 µM
Escherichia coli [25]
  MBC: 16 µM
Escherichia coli [26]
  MBC: 16 µM
Escherichia coli [27]
  MBC: 16 µM
Escherichia coli [28]
  Activity: inactive
Escherichia coli [29]
  MBC: 4 µM
Escherichia coli [30]
  MBC: 16 µM
Escherichia coli [31]
  MBC: 4 µM
Pseudomonas aeruginosa [32]
  MBC: > 64 µM
Salmonella typhimurium [33]
  MBC: > 64 µM
Salmonella typhimurium [34]
  MBC: > 64 µM
[35]
  MBC: > 64 µM
Klebsiella pneumoniae [36]
  MBC: 64 µM
Trypsin
  Stability: Stable
[37]
  Stability: Unstable
